The source made the active and inactive calls. The rule behind the calls is not given here. Where a SMILES comes first, the peptide text is derived from it. [ ]: non-standard residue; d: D form. NMeV = CN[C@H](C(=O)O)C(C)C; GABA = NCCCC(=O)O A value given as a limit tells only on which side of the number the result lay.

The target in assay [1] is T1, RAC-alpha serine/threonine-protein kinase (Homo sapiens, UniProt P31749). The assay is described as follows: Inhibition of AKT1 (unknown origin) after 1 hr by Z'-LYTE kinase assay in presence of 75 uM ATP.
T1 sequence (P31749 whole entry): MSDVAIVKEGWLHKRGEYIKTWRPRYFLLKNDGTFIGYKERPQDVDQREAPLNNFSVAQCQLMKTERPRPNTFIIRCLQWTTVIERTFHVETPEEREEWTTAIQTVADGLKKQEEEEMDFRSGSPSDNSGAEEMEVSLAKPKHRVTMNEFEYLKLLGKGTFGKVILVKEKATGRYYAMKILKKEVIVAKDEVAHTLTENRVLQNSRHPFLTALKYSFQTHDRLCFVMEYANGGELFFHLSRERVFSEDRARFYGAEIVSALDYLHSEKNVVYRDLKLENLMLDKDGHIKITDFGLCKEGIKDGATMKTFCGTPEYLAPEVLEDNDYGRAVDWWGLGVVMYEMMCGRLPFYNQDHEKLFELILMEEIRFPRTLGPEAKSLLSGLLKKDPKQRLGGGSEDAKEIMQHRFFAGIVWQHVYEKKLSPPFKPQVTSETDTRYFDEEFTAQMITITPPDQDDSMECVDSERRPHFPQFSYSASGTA
Assay [2] deals with T1, RAC-alpha serine/threonine-protein kinase. The assay is described as follows: Binding affinity to AKT1 (unknown origin) assessed as covalent modification at Cys310 residue by mass spectrometry.
For another assay, the system named is NCI-H460. The assay is described as follows: Growth inhibition of human NCI-H460 cells after 72 hrs by coulter counter method. As to conditions: NCI-H460, 72 h. The assay is classed as functional, cell-based.
Assay [3] in a line: Growth inhibition of human HCT116 cells after 72 hrs by coulter counter method. The assay is classed as functional, cell-based. As to conditions: HCT-116, 72 h.
In assay [4] the target is T1, RAC-alpha serine/threonine-protein kinase. The assay is described as follows: Inhibition of AKT1 (unknown origin) after 30 mins by scintillation counting analysis in presence of 100 uM ATP.

The IC50 is the point on the concentration scale where inhibition reaches its midpoint. With `CC(C)(C)OC(=O)NN(Cc1ccccc1)C(=O)CI`, the IC50 in assay [1] came to 16.1 µM.
Take `C=CC(=O)[C@H](Cc1ccccc1)NC(=O)OCc1cn(CCCCCCNC(=S)Nc2ccc(-c3c4ccc(=O)cc-4oc4cc(O)ccc34)c(C(=O)O)c2)nn1`: the outcome in assay [2] was Active.
As for `CC(C)(C)OC(=O)N[C@@H](Cc1ccccc1)C(=O)NCCCl`, the IC50 in assay [1] is > 100 µM.
On to `CC(C)(C)OC(=O)NN(Cc1ccccc1)C(=O)CN1C(=O)C=CC1=O`, for which the half-inhibitory concentration (IC50) in assay [1] is 4.68 µM.
Still for that read-out and setting: in the case of `CC(C)(C)OC(=O)N[C@@H](Cc1ccccc1)C(=O)NCCI` it was > 100 µM.
For `CCn1c(-c2nonc2N)nc2c(C#CC(C)(C)O)ncc(OC[C@H]3CCCNC3)c21` [GSK-690693], the IC50 with NCI-H460 is 5.4 µM; in assay [3] it was 8.2 µM.
`NC1(c2ccc(-c3nc4ccn5c(=O)[nH]nc5c4cc3-c3ccccc3)cc2)CCC1` [MK-2206]: the 50% inhibitory concentration (IC50) stood at 5.4 µM with NCI-H460 and 7.5 µM in assay [3].
Consider `CC(C)(C)OC(=O)N[C@@H](Cc1ccccc1)C(=O)NCCN1C(=O)C=CC1=O`, for which the half-maximal inhibitory concentration (IC50) in assay [1] came to 4.48 µM.
`COC[C@H](NC(=O)[C@H](Cc1ccc(O)cc1)NC(=O)[C@H](C(C)C)N(C)C(=O)[C@H](CCCNC(=N)N)NC(=O)[C@@H]1CCCN1C(=O)[C@@H](N)CCCNC(=N)N)C(=O)NCCCC(=O)O` (H-RPR[NMeV]YS(Me)[GABA]-OH): the half-maximal inhibitory concentration (IC50) in assay [4] was found to be 0.2 µM.
Turning to `CC(C)(C)OC(=O)NN(Cc1ccccc1)C(=O)CBr`, in assay [1], the IC50 amounted to 24.7 µM.
Consider `CCC(=O)[C@H](Cc1ccccc1)NC(=O)OC(C)(C)C`, for which the IC50 (in the assay on NCI-H460; in assay [3]; in assay [1]) was > 100 µM throughout.
Consider `CC(C)(C)OC(=O)NN(Cc1ccccc1)C(=O)CCl`, for which, in assay [1], the IC50 is > 100 µM.
For `CC(C)(C)OC(=O)N[C@@H](Cc1ccccc1)C(=O)NCCBr`, the IC50 in assay [1] was > 100 µM.
Take `C=CC(=O)N(Cc1ccccc1)NC(=O)OC(C)(C)C`: the concentration for half-maximal inhibition (IC50) in assay [1] is > 100 µM.

These data come from ChEMBL document CHEMBL3297689, “Phenylalanine-Based Inactivator of AKT Kinase: Design, Synthesis, and Biological Evaluation” (ACS Med Chem Lett, 2014).
